Structures are written as SMILES. pEC50: −log10 of the molar value.

The assay concerns the target T1, His-p53 Y220C (94-294) protein (Homo sapiens, UniProt P04637, Y220C).
T1 construct: His-p53 Y220C (94-294) protein
Description: In vitro DNA binding assay (HTRF). Format: biochemical. The following applies: % activation normalized to 2 μM Ref-1a high control. Background: TR-FRET usually uses a lanthanide donor and a delayed reading to cut background.
By pEC50 is commonly meant the EC50 on a negative log10 scale, so that one unit is a factor of ten. Read a high pEC50 as a small EC50. As for `CN1CC[C@H](Nc2cccc3c(CC(F)(F)F)c(C#CCNc4ccc(S(N)(=O)=O)cc4)sc23)[C@H](F)C1` (racemic) [Example 5, 4-((3-(7-(((3R,4S)-3-fluoro-1-methylpiperidin-4-yl)amino)-3-(2,2,2-trifluoroethyl)benzo[b]thiophen-2-yl)prop-2-yn-1-yl)amino)benzenesulfonamide], the pEC50 is 7.49.
The result for `COc1cc(P(C)(C)=O)ccc1NCC#Cc1sc2c(NC[C@@]34CCCN3C[C@H](F)C4)cccc2c1CC(F)(F)F` [Example 70, (4-((3-(7-((((2R,7aS)-2-fluorotetrahydro-1H-pyrrolizin-7a(5H)-yl)methyl)amino)-3-(2,2,2-trifluoroethyl)benzo[b]thiophen-2-yl)prop-2-yn-1-yl)amino)-3-methoxyphenyl)dimethylphosphine oxide] reads 6.64.
The result for `COc1cc(S(C)(=O)=O)ccc1NCC#Cc1sc2c(NC3CC4CC3CN4)cccc2c1CC(F)(F)F` (stereo not drawn) [Example 28, N-(2-(3-((2-methoxy-4-(methylsulfonyl)phenyl)amino)prop-1-yn-1-yl)-3-(2,2,2-trifluoroethyl)benzo[b]thiophen-7-yl)-2-azabicyclo[2.2.1]heptan-5-amine] reads 6.55; that for `CN1CC[C@@H](Nc2cccc3c(CC(F)(F)F)c(C#CCNc4cc(P(C)(C)=O)n[nH]4)sc23)[C@@H](F)C1` [Example 204, (5-((3-(7-(((3S,4R)-3-fluoro-1-methylpiperidin-4-yl)amino)-3-(2,2,2-trifluoroethyl)benzo[b]thiophen-2-yl)prop-2-yn-1-yl)amino)-1H-pyrazol-3-yl)dimethylphosphine oxide], 6.09; that for `COc1cc(S(C)(=O)=O)ccc1NCC#Cc1sc2c(NC3CCN(C)CC3)cccc2c1CC(F)(F)F` [Example 3, N-(2-(3-((2-methoxy-4-(methylsulfonyl)phenyl)amino)prop-1-yn-1-yl)-3-(2,2,2-trifluoroethyl)benzo[b]thiophen-7-yl)-1-methylpiperidin-4-amine], 7.09.
The same measure for `COc1cc(S(C)(=O)=O)ccc1NCC#Cc1sc2c(N(C)C3CCN(C)CC3F)cccc2c1CC(F)(F)F` (stereo not drawn) [Example 42, (Z)-3-fluoro-N-(2-(3-((2-methoxy-4-(methylsulfonyl)phenyl)amino)prop-1-yn-1-yl)-3-(2,2,2-trifluoroethyl)benzo[b]thiophen-7-yl)-N,1-dimethylpiperidin-4-amine]: 6.18; for `COc1cc(S(C)(=O)=O)ccc1NCC#Cc1sc2c(NC3C4CCC3CN(C)C4)cccc2c1CC(F)(F)F` (stereo not drawn) [Example 25, N-(2-(3-((2-methoxy-4-(methylsulfonyl)phenyl)amino)prop-1-yn-1-yl)-3-(2,2,2-trifluoroethyl)benzo[b]thiophen-7-yl)-3-methyl-3-azabicyclo[3.2.1]octan-8-amine]: 6.51; for `COc1cc(P(C)(C)=O)cc(F)c1NCC#Cc1sc2c(N[C@@H]3CCN(C)C[C@@H]3F)cccc2c1CC(F)(F)F` [Example 206, (3-fluoro-4-((3-(7-(((3S,4R)-3-fluoro-1-methylpiperidin-4-yl)amino)-3-(2,2,2-trifluoroethyl)benzo[b]thiophen-2-yl)prop-2-yn-1-yl)amino)-5-methoxyphenyl)dimethylphosphine oxide]: 6.69.
The molecule `COc1cc(P(C)(C)=O)ccc1NCC#Cc1sc2c(N[C@H]3CCN(C)C[C@H]3Cl)cccc2c1CC(F)(F)F` [Example 144, (3R,4S)-3-chloro-N-[2-[3-(4-dimethylphosphoryl-2-methoxy-anilino)prop-1-ynyl]-3-(2,2,2-trifluoroethyl)benzothiophen-7-yl]-1-methyl-piperidin-4-amine] had a pEC50 of 6.99.
The result for `COc1cc2c(cc1NCC#Cc1sc3c(N[C@@H]4CCN(C)C[C@@H]4F)cccc3c1CC(F)(F)F)CNS2(=O)=O` (racemic) [Example 77, 5-((3-(7-(((Z)-3-fluoro-1-methylpiperidin-4-yl)amino)-3-(2,2,2-trifluoroethyl)benzo[b]thiophen-2-yl)prop-2-yn-1-yl)amino)-6-methoxy-2,3-dihydrobenzo[d]isothiazole 1,1-dioxide] reads 6.04; that for `COc1nc(C(N)=O)ccc1NCC#Cc1sc2c(NC3CCN(C)CC3F)cccc2c1CC(F)(F)F` (stereo not drawn) [Example 63, 5-((3-(7-(((Z)-3-fluoro-1-methylpiperidin-4-yl)amino)-3-(2,2,2-trifluoroethyl)benzo[b]thiophen-2-yl)prop-2-yn-1-yl)amino)-6-methoxypicolinamide], 6.66; that for `COc1cc(P(C)(C)=O)ccc1NCC#Cc1sc2c(NC3CCN(C)CC3(F)F)cccc2c1CC(F)(F)F` (stereo not drawn) [Example 43, (4-((3-(7-((3,3-difluoro-1-methylpiperidin-4-yl)amino)-3-(2,2,2-trifluoroethyl)benzo[b]thiophen-2-yl)prop-2-yn-1-yl)amino)-3-methoxyphenyl)dimethylphosphine oxide], 6.41.
The result for `COc1cc(S(N)(=O)=O)ccc1NCC#Cc1sc2c(NC3CCN(C)CC3F)cccc2c1CC(F)(F)F` (stereo not drawn) [Example 40, 4-((3-(7-(((Z)-3-fluoro-1-methylpiperidin-4-yl)amino)-3-(2,2,2-trifluoroethyl)benzo[b]thiophen-2-yl)prop-2-yn-1-yl)amino)-3-methoxybenzenesulfonamide] reads 7.22; that for `COc1cc(S(C)(=O)=O)ccc1NCC#Cc1sc2c(N[C@H]3CC[C@H](N4CC5(CCOCC5)C4)CC3)cccc2c1CC(F)(F)F` [Example 18, Trans-N-(4-(7-oxa-2-azaspiro[3.5]nonan-2-yl)cyclohexyl)-2-(3-((2-methoxy-4-(methylsulfonyl)phenyl)amino)prop-1-yn-1-yl)-3-(2,2,2-trifluoroethyl)benzo[b]thiophen-7-amine], 6.76; that for `COc1cc(P(C)(C)=O)ccc1NCC#Cc1sc2c(N[C@@H]3CCN(C4CC(C)(C)OC(C)(C)C4)C[C@@H]3F)cccc2c1CC(F)(F)F` [Example 181, (4-((3-(7-(((3S,4R)-3-fluoro-1-(2,2,6,6-tetramethyltetrahydro-2H-pyran-4-yl)piperidin-4-yl)amino)-3-(2,2,2-trifluoroethyl)benzo[b]thiophen-2-yl)prop-2-yn-1-yl)amino)-3-methoxyphenyl)dimethylphosphine oxide], 7.02.
The result for `CN1CCC(Nc2cccc3c(CC(F)(F)F)c(C#CCNc4ccc(S(C)(=O)=O)cc4OCC(F)(F)F)sc23)CC1` [Example 13, 1-methyl-N-(2-(3-((4-(methylsulfonyl)-2-(2,2,2-trifluoroethoxy)phenyl)amino)prop-1-yn-1-yl)-3-(2,2,2-trifluoroethyl)benzo[b]thiophen-7-yl)piperidin-4-amine] reads 6.77; that for `COc1cc(S(N)(=O)=O)ccc1NCC#Cc1sc2c(NC3CCN(C)CC3)cccc2c1CC(F)(F)F` [Example 23, 3-methoxy-4-((3-(7-((1-methylpiperidin-4-yl)amino)-3-(2,2,2-trifluoroethyl)benzo[b]thiophen-2-yl)prop-2-yn-1-yl)amino)benzenesulfonamide], 7.00; that for `COc1cc(S(C)(=O)=O)ccc1NCC#Cc1sc2c(NC3CCN(C)CC3F)cccc2c1CC(F)(F)F` (stereo not drawn) [Example 2, (Z)-3-fluoro-N-(2-(3-((2-methoxy-4-(methylsulfonyl)phenyl)amino)prop-1-yn-1-yl)-3-(2,2,2-trifluoroethyl)benzo[b]thiophen-7-yl)-1-methylpiperidin-4-amine], 7.36.
`COc1cc(S(C)(=O)=O)ccc1NCC#Cc1sc2c(NC3CCN(CCF)CC3)cccc2c1CC(F)(F)F` [Example 36, 1-(2-fluoroethyl)-N-(2-(3-((2-methoxy-4-(methylsulfonyl)phenyl)amino)prop-1-yn-1-yl)-3-(2,2,2-trifluoroethyl)benzo[b]thiophen-7-yl)piperidin-4-amine] showed a pEC50 of 6.52.
The result for `COc1cc(S(=O)(=O)N2CCOCC2)ccc1NCC#Cc1sc2c(NC3CCN(C)CC3)cccc2c1CC(F)(F)F` [Example 22, N-(2-(3-((2-methoxy-4-(morpholinosulfonyl)phenyl)amino)prop-1-yn-1-yl)-3-(2,2,2-trifluoroethyl)benzo[b]thiophen-7-yl)-1-methylpiperidin-4-amine] reads 6.54; that for `COc1cc(P(C)(C)=O)cnc1NCC#Cc1sc2c(N[C@@H]3CCN(C)C[C@@H]3F)cccc2c1CC(F)(F)F` [Example 207, (6-((3-(7-(((3S,4R)-3-fluoro-1-methylpiperidin-4-yl)amino)-3-(2,2,2-trifluoroethyl)benzo[b]thiophen-2-yl)prop-2-yn-1-yl)amino)-5-methoxypyridin-3-yl)dimethylphosphine oxide], 6.90; that for `COc1cc(S(C)(=O)=O)ccc1NCC#Cc1cc2c(N[C@H]3CC[C@@H](N4CC5(COC5)C4)CC3)cccc2n1CC(F)(F)F` [Example 39, Cis-N-(4-(2-oxa-6-azaspiro[3.3]heptan-6-yl)cyclohexyl)-2-(3-((2-methoxy-4-(methylsulfonyl)phenyl)amino)prop-1-yn-1-yl)-1-(2,2,2-trifluoroethyl)-1H-indol-4-amine], 6.80.
For the molecule `COc1cc(P(C)(C)=O)ccc1OCC#Cc1sc2c(N[C@@H]3CCN(C)C[C@@H]3F)cccc2c1CC(F)(F)F` (racemic) [Example 123, (4-((3-(7-(((Z)-3-fluoro-1-methylpiperidin-4-yl)amino)-3-(2,2,2-trifluoroethyl)benzo[b]thiophen-2-yl)prop-2-yn-1-yl)oxy)-3-methoxyphenyl)dimethylphosphine oxide], the pEC50 is 6.83.
Molecule `CCP(=O)(CC)c1ccc(NCC#Cc2sc3c(NC4CCN(C5CCOCC5)CC4)cccc3c2CC(F)(F)F)c(OC)c1` [Example 155, diethyl(3-methoxy-4-((3-(7-((1-(tetrahydro-2H-pyran-4-yl)piperidin-4-yl)amino)-3-(2,2,2-trifluoroethyl)benzo[b]thiophen-2-yl)prop-2-yn-1-yl)amino)phenyl)phosphine oxide] had a pEC50 of 6.83.

The record behind these values is patent US20240400591A1 (Jacobio Pharmaceuticals Co., Ltd., priority 2021, published 2024).
